What is called IC50 is the concentration that inhibits the measured activity by half.

22 compounds from patent US9630958B2, “Triazine compounds” (Sphaera Pharma Pte. Ltd., priority 2012, dated 2017) can be followed below.

For experiment [1], the target named is T1, PI3 Kinase alpha (p110 alpha/p85 alpha) (Homo sapiens, UniProt P42336).
T1 construct: purchased Invitrogen
The experiment in a line: PI3K TR-FRET assay (Transcreener ADP2). In kind it is biochemical. To be noted: for inhibition at 1 µM: 1 uM compound, read-out: PI3K % Inhib@1 uM; for IC50: PI3K alpha, 1 μM ATP, 50 μM PIP2. Here is the method: Enzymatic activity of PI3K alpha was measured using Time resolved Fluorescence resonance energy transfer (TR-FRET) assay. This assay utilizes ADP detection as a means to screen inhibitor potency of compounds. The Transcreener ADP2 TR-FRET Red Assay is a competitive immunoassay for ADP with a far-red, TR-FRET readout and it has been used for this purpose. The assay can be used for any enzyme class that produces ADP (Kinases, ATPases). It consists of ADP HiLyte647 Tracer, ADP^2 Antibody-Tb conjugate (800 nM), stop & detect buffer, 5 mM ATP, 5 mM ADP. The ADP HiLyte647 Tracer is bound to an ADP^2 Antibody-Tb conjugate. The excitation of the terbium complex in the UV range results in energy transfer to the tracer and emission at a higher wavelength after a time delay ADP produced by the target enzyme displaces the tracer which causes decrease in TR-FRET.
The reaction buffer used for the assay was 50 mM HEPES, pH 7.4.3 mM MgCl2, 0.05% CHAPS, 50 mM NaCl, 2 mM DTT, 1 mM EGTA. PI3 Kinase alpha (p110 alpha/p85 alpha) and PIP2 Substrate (diC8,) were procured from Invitrogen and Echelon respectively.
Kinase reactions were performed in 10 μl volume in Corning white 384 well plates. […] Reaction was initiated by the addition of substrate (PIP2) and ATP at final conc. of 50 μM and 1 μM ATP in the reaction respectively. Kinase reactions were allowed to proceed for 1 hour at room temperature before a 10 μL preparation of Transcreener ADP detection mix was added. Plate was incubated at room temperature for 1 hr. ADP-ATP standard curves were also prepared.
(§1) FRET signal was read in Envision Multilabel Reader with the following filters:
Excitation-330 nm and Emission 615 nm (donor) and 665 nm (acceptor). TR FRET Ratio (Fluorescence 665 nm/Fluorescence 615 nm) was converted to amount of product formed using the standard curve generated. Percentage inhibition was calculated and plotted against the concentration of inhibitor and data was fit to Non Linear Regression curve fit (sigmoidal dose response curve with variable slope-four parameters) using Graph pad prism 5 and IC50 was calculated for the compound.
Background: TR-FRET usually uses a lanthanide donor and a delayed reading to cut background.

The target of the next experiment is T2, Recombinant mTOR (FRAP1) (Homo sapiens, UniProt P42345).
T2 construct: purchased Invitrogen
T2 sequence (P42345 1360-2549 limits assumed): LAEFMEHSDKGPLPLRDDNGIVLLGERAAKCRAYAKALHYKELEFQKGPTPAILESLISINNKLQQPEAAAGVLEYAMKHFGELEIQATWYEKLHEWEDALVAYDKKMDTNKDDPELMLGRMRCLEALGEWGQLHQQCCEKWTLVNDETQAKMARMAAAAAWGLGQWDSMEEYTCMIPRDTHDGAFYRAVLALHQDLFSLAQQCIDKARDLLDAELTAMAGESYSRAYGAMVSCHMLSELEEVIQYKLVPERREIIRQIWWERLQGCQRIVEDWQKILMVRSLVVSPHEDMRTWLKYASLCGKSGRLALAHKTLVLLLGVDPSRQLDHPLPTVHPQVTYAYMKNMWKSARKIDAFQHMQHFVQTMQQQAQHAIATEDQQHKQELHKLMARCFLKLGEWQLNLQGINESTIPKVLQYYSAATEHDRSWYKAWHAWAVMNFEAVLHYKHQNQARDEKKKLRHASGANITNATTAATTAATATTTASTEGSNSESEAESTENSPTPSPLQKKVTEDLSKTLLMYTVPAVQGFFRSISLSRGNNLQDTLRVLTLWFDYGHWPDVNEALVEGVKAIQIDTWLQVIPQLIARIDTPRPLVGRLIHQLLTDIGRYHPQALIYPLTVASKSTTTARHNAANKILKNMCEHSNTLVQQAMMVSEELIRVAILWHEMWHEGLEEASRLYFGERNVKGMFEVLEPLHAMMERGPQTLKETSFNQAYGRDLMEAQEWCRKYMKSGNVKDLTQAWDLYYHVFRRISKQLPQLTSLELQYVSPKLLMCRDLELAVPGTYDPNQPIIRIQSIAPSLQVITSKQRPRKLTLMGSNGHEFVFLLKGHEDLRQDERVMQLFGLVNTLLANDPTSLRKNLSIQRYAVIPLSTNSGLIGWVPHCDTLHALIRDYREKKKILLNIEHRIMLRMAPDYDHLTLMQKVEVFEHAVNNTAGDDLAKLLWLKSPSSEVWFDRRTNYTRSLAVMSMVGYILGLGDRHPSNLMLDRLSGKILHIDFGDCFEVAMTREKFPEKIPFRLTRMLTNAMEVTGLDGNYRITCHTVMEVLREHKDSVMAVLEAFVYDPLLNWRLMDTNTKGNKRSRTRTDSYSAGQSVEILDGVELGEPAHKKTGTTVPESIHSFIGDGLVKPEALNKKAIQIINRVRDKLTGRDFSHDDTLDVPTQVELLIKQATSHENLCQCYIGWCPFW
The experiment in a line: mTOR in vitro kinase assay (TR-FRET, phosphorylation of GFP-4E-BP1). The conditions noted are these: for IC50: 8 μM ATP, 400 nM GFP-4E-BP1; for inhibition at 1 µM: 1 uM compound, read-out: mTOR % Inhib@1 uM. In kind it is biochemical. As for the experimental part:
Compounds were evaluated for mTOR activity using an in vitro kinase assay.
mTOR activity is measured in vitro by determining the level of phosphorylation of the protein substrate 4EBP-1. The phosphorylation of GFP-4E-BP1 at threonine residue is recognized by Ab Tb-Anti-p4EBP1, which results in time resolved fluorescence energy transfer (TR-FRET) between GFP and Terbium in the Ab-Protein complex.
Recombinant mTOR (FRAP1), Kinase reaction buffer, GFP-4E-BP1 and LanthaScreen Tb-anti-4E-BP1 (pThr46), TR FRET dilution buffer, Kinase Quench Buffer were obtained from Invitrogen.
Kinase reactions were performed in 10 μl volume in Corning white 384 well plates. […] The reaction was initiated by the addition of substrate (GFP-4E-BP1) and ATP at a final conc. of 400 nM and 8 μM ATP in the reaction respectively. The kinase reaction was allowed to proceed for 1 hour at room temperature before a 10 μL preparation of kinase quench buffer and Tb-labeled Antibody in TR-FRET dilution buffer was added. The final concentration of the antibody in the assay well is 2 nM and the final concentration of EDTA is 10 mM. The plate was incubated at room temperature for 1 h.
as §1
Excitation-330 nm and Emission 486 nm (donor) and 520 nm (acceptor).
TR FRET Ratio (Fluorescence 520 nm/Fluorescence 486 nm) was plotted against the concentration of inhibitor and data was fit to Non Linear Regression curve fit (sigmoidal dose response curve with variable slope-four parameters) using Graph Pad Prism 5.

T1 sequence (P42336 whole entry): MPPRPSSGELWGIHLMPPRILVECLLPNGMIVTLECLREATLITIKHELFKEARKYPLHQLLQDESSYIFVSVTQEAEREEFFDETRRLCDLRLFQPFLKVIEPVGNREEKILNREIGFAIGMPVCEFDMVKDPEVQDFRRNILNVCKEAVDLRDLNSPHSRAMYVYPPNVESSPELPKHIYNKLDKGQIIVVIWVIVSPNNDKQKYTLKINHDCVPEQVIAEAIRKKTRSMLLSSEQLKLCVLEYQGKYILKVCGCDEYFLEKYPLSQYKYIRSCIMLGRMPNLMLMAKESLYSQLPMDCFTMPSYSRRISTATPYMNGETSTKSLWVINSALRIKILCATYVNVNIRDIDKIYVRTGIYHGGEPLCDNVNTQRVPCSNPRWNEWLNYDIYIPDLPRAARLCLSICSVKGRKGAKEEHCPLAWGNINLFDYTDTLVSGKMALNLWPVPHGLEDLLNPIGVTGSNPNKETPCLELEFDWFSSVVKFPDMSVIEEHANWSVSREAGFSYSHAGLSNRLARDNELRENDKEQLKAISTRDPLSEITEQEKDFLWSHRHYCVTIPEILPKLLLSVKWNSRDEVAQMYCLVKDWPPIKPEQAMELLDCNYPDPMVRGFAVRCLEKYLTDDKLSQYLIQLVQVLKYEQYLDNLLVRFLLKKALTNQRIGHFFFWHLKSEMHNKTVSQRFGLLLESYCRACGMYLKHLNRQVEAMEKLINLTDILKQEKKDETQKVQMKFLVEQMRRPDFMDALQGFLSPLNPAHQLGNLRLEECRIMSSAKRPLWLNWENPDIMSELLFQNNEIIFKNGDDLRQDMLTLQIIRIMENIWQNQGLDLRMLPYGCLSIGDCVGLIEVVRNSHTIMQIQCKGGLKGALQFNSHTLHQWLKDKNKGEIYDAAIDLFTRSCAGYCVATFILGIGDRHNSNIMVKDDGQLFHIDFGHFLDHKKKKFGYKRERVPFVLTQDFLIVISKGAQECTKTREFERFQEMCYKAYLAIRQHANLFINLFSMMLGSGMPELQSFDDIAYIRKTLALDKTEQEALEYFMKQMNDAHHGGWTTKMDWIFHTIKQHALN
T1 sequence (P27986 whole entry partner): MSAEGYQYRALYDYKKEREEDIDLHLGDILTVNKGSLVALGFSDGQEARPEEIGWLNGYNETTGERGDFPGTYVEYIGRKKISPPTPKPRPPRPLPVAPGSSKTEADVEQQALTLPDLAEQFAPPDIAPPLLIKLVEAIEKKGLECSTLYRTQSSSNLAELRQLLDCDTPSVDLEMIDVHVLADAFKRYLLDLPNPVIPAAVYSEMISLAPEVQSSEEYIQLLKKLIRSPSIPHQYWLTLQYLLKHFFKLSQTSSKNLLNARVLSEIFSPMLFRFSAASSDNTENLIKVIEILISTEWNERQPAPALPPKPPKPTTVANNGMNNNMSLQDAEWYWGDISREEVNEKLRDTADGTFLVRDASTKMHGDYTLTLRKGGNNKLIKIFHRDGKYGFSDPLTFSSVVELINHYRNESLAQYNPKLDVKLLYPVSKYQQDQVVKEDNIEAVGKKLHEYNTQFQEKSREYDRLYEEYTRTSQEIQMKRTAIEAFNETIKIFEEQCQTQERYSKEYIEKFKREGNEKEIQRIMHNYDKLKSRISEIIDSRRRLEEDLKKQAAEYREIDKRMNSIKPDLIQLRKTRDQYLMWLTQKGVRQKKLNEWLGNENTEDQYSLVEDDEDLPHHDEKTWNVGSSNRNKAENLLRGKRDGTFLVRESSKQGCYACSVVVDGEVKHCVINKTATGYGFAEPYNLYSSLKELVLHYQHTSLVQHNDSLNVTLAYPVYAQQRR

With `C[C@H]1CN(c2nc(Oc3ccc(C(=O)N(C)C)cc3)nc(-c3cnc(N)s3)n2)[C@@H](C)CO1` [Compound 10077, 4-((4-(2-Aminothiazol-5-yl)-6-((2S,5S)-2,5-dimethylmorpholino)-1,3,5-triazin-2-yl)oxy)-N,N-dimethylbenzamide], in experiment [1], the inhibition at 1 µM is greater than 50% and the IC50 was less than 1000 nM. Further, the IC50 at Recombinant mTOR (FRAP1) was less than 1000 nM.

For `C[C@H]1CN(c2nc(Oc3ccc(C(=O)N(C)C)cc3)nc(-c3cnc(N)s3)n2)CCO1` [Compound 10127, 4-(4-(2-aminothiazol-5-yl)-6-((S)-2-methylmorpholino)-1,3,5-triazin-2-yloxy)-N,N-dimethylbenzamide], the inhibition at 1 µM (in experiment [1]; at Recombinant mTOR (FRAP1)) was greater than 50% in each case. Moreover, the IC50 (in experiment [1]; at Recombinant mTOR (FRAP1)) was less than 1000 nM throughout. As for `CN(C)C(=O)c1ccc(Oc2nc(-c3cnc(N)s3)nc(N3CC4CCC(C3)O4)n2)cc1` [Compound 10075, 4-((4-(2-Aminothiazol-5-yl)-6-(8-oxa-3-azabicyclo[3.2.1]octan-3-yl)-1,3,5-triazin-2-yl)oxy)-N,N-dimethylbenzamide], in experiment [1], the inhibition at 1 µM was less than 50% and the IC50 was greater than 1000 nM. Moreover, at Recombinant mTOR (FRAP1), the inhibition at 1 µM is greater than 50% and the IC50 was less than 1000 nM. For the compound `C[C@@H]1CN(c2nc(Oc3ccc(C(=O)N(C)C)cc3F)nc(-c3ccc4[nH]ncc4c3)n2)[C@@H](C)CO1` [Compound 10064, 4-((4-((2R,3S)-2,5-dimethylmorpholino)-6-(1H-indazol-5-yl)-1,3,5-triazin-2-yl)oxy)3-fluoro-N,N-dimethylbenzamide], the inhibition at 1 µM in experiment [1] is less than 50%. Further, the IC50 on Recombinant mTOR (FRAP1) was less than 1000 nM. On to `CN(C)C(=O)[C@H]1CC[C@H](Oc2nc(-c3cnc(N)s3)nc(N3CCO[C@H]4CCC[C@@H]43)n2)CC1` [Compound 10145, (1S,4r)-4-(4-(2-aminothiazol-5-yl)-6-((4aS,7aS)-hexahydrocyclopenta[b][1,4]oxazin-4(4aH)-yl)-1,3,5-triazin-2-yloxy)-N,N-dimethylcyclohexanecarboxamide], for which, in experiment [1], the inhibition at 1 µM was less than 50%. Besides, the IC50 on Recombinant mTOR (FRAP1) is greater than 1000 nM.

Turning to `C[C@H]1OCCN(c2nc(Oc3ccc(C(=O)N(C)C)cc3F)nc(-c3cnc(N)s3)n2)[C@H]1C` [Compound 10052, 4-((4-(2-Aminothiazol-5-yl)-6-((2R,3S)-2,3-dimethylmorpholino)-1,3,5-triazin-2-yl)oxy)-3-fluoro-N,N-dimethylbenzamide], the inhibition at 1 µM in experiment [1] is greater than 50%. Also, the IC50 (in experiment [1]; at Recombinant mTOR (FRAP1)) was less than 1000 nM throughout. With `CN(C)C(=O)c1ccc(Oc2nc(-c3cnc(N)s3)nc(N3CCO[C@@H]4CCC[C@H]43)n2)cc1` [Compound 10132, 4-(4-(2-aminothiazol-5-yl)-6-((4aR,7aR)-hexahydrocyclopenta[b][1,4]oxazin-4(4aH)-yl)-1,3,5-triazin-2-yloxy)-N,N-dimethylbenzamide], the results for the inhibition at 1 µM (in experiment [1]; on Recombinant mTOR (FRAP1)) were less than 50% and greater than 50%, respectively. The IC50 (in experiment [1]; at Recombinant mTOR (FRAP1)) was less than 1000 nM in each case. With `C[C@H]1CN(c2nc(Oc3ccc(C(=O)N(C)C)cc3F)nc(-c3cnc(N)s3)n2)[C@@H](C)[C@@H](C)O1` [Compound 10088, 4-((4-(2-Aminothiazol-5-yl)-6-((2R,3S,6S)-2,3,6-trimethylmorpholino)-1,3,5-triazin-2-yl)-oxy)-3-fluoro-N,N-dimethylbenzamide], at Recombinant mTOR (FRAP1), the inhibition at 1 µM was less than 50%. For `CN(C)C(=O)N1CCC(COc2nc(-c3ccc(N)nc3)nc(N3CCOCC3)n2)C1` (stereo not shown) [Compound 10187, 3-(((4-(6-aminopyridin-3-yl)-6-morpholino-1,3,5-triazin-2-yl)oxy)methyl)-N,N-dimethylpyrrolidine-1-carboxamide], the IC50 in experiment [1] is less than 1000 nM. Same read-out and setting: with `CN(C)C(=O)Cc1cccc(Oc2nc(-c3ccc(N)nc3)nc(N3CCOCC3)n2)c1` [Compound 10184, 2-(3-((4-(6-aminopyridin-3-yl)-6-morpholino-1,3,5-triazin-2-yl)oxy)phenyl)-N,N-dimethylacetamide] the figure was less than 1000 nM. Regarding `C[C@H]1CN(c2nc(Oc3ccc(C(=O)N(C)C)cc3F)nc(-c3cnc(N)s3)n2)C[C@H](C)O1` [Compound 10084, 4-((4-2-Aminothiazol-5-yl)-6-((2S,6S)-2,6-dimethylmorpholino)-1,3,5-triazin-2-yl)oxy-3-fluoro-N,N-dimethylbenzamide], the IC50 on Recombinant mTOR (FRAP1) was less than 1000 nM. As for `C[C@@H]1CN(c2nc(Oc3ccc(C(=O)N(C)C)cc3F)nc(-c3cnc(N)s3)n2)[C@H](C)CO1` [Compound 10205, 4-((4-(2-aminothiazol-5-yl)-6-((2R,5R)-2,5-dimethylmorpholino)-1,3,5-triazin-2-yl)oxy)-3-fluoro-N,N-dimethylbenzamide], at Recombinant mTOR (FRAP1), the IC50 is less than 1000 nM. In experiment [1], `CN(C)C(=O)c1ccc(Oc2nc(-c3cnc(N)s3)nc(N3CCOCC34CCCC4)n2)c(F)c1` [Compound 10083, 4-((4-(2-Aminothiazol-5-yl)-6-(9-oxa-6-azaspiro[4.5]decan-6-yl)-1,3,5-triazin-2-yl)oxy)-3-fluoro-N,N-dimethylbenzamide] returned an IC50 of less than 1000 nM. Regarding `C[C@@H]1CN(c2nc(Oc3ccc(C(=O)N(C)C)cc3F)nc(-c3cnc(N)s3)n2)C[C@@H](C)O1` [Compound 10070, 4-((4-2-Aminothiazol-5-yl)-6-((2R,6R)-2,6-dimethylmorpholino)-1,3,5-triazin-2-yl)oxy-3-fluoro-N,N-dimethylbenzamide], on Recombinant mTOR (FRAP1), the IC50 is less than 1000 nM. Compound `CN(C)C(=O)c1ccc(Oc2nc(-c3ccc(NN)nc3)nc(N3CCOCC3)n2)cc1` [Compound 10177, 4-((4-(6-hydrazinylpyridin-3-yl)-6-morpholino-1,3,5-triazin-2-yl)oxy)-N,N-dimethylbenzamide] displayed an IC50 in experiment [1] of less than 1000 nM. In experiment [1], `CN(C)C(=O)N1CCC(Oc2nc(-c3ccc(N)nc3)nc(N3CCOCC3)n2)C1` (stereo not shown) [Compound 10186, 3-((4-(6-aminopyridin-3-yl)-6-morpholino-1,3,5-triazin-2-yl)oxy)-N,N-dimethylpyrrolidine-1-carboxamide] came in with a 50% inhibitory concentration (IC50) of less than 1000 nM. In the case of `CN(C)C(=O)c1ccc(Oc2nc(-c3cnc(N)s3)nc(N3CCO[C@@H]4CCC[C@@H]43)n2)c(F)c1` [Compound 10206], the IC50 on Recombinant mTOR (FRAP1) was less than 1000 nM. In turn, `Nc1ncc(-c2nc(N3CCOCC3)nc(N3CCNC(=O)CC3)n2)s1` [Compound 10198, 1-(4-(2-aminothiazol-5-yl)-6-morpholino-1,3,5-triazin-2-yl)-1,4-diazepan-5-one] gave an IC50 in experiment [1] of less than 1000 nM. Still for that read-out and setting: with `CN(C)C(=O)c1cccc(Oc2nc(-c3ccc(N)nc3)nc(N3CCOCC3)n2)c1` [Compound 10183, 3-((4-(6-aminopyridin-3-yl)-6-morpholino-1,3,5-triazin-2-yl)oxy)-N,N-dimethylbenzamide] the figure was less than 1000 nM. Take `C[C@H]1COCCN1c1nc(Oc2ccc(C(=O)N(C)C)cc2)nc(-c2cnc(NC(=O)c3cccnc3)s2)n1` [Compound 10094, (S)-N-(5-(4-(4-(dimethylcarbamoyl)phenoxy)-6-(3-methylmorpholino)-1,3,5-triazin-2-yl)thiazol-2-yl)nicotinamide]: the inhibition at 1 µM in experiment [1] is less than 50%.

For the compound `CC1COCCN1c1nc(Oc2ccc(C(=O)N(C)C)cc2F)nc(-c2ccc(N)nc2)n1` (stereo not shown) [Compound 10207, 4-((4-(6-aminopyridin-3-yl)-6-(3-methylmorpholino)-1,3,5-triazin-2-yl)oxy)-3-fluoro-N,N-dimethylbenzamide], the IC50 at Recombinant mTOR (FRAP1) was less than 1000 nM. For the compound `Nc1ccc(-c2nc(SCc3ccccc3)nc(N3CCOCC3)n2)cn1` [Compound 10175, 5-(4-(benzylthio)-6-morpholino-1,3,5-triazin-2-yl)pyridine-2-amine], the IC50 in experiment [1] is less than 1000 nM.
